Experiment [1] concerns SMMC-7721. Nature of the experiment: Cytotoxicity in human SMMC7721 cells assessed as reduction in cell viability at 40 uM incubated for 48 hrs by MTT assay. In kind it is functional, cell-based. On the technique in general: Tetrazolium assays rely on reduction of a dye to a coloured formazan, in cell work by metabolically active cells.
Experiment [2] concerns U-87 MG. Nature of the experiment: Cytotoxicity in human U87 cells assessed as reduction in cell viability at 40 uM incubated for 48 hrs by MTT assay. In kind it is functional, cell-based. Particulars: U-87MG ATCC.
The subject of experiment [3] is HepG2. Nature of the experiment: Cytotoxicity in human HepG2 cells assessed as reduction in cell viability at 40 uM incubated for 48 hrs by MTT assay. In kind it is functional, cell-based.
In experiment [4] the test system is U-251. Briefly: Cytotoxicity in human U251 cells assessed as reduction in cell viability at 40 uM incubated for 48 hrs by MTT assay. In kind it is functional, cell-based.
The test system of experiment [5] is A549. Briefly: Cytotoxicity in human A549 cells assessed as reduction in cell viability at 40 uM incubated for 48 hrs by MTT assay. In kind it is functional, cell-based.
The subject of experiment [6] is HT-29. Briefly: Cytotoxicity in human HT-29 cells assessed as reduction in cell viability at 40 uM incubated for 48 hrs by MTT assay. Format: functional, cell-based.
In experiment [7] the test system is U-251. Briefly: Cytotoxicity in human U251 cells assessed as reduction in cell viability incubated for 48 hrs by MTT assay. Format: functional, cell-based. Particulars: U-251, 48 h.
In experiment [8] the test system is U-87 MG. Nature of the experiment: Cytotoxicity in human U87 cells assessed as reduction in cell viability incubated for 48 hrs by MTT assay. In kind it is functional, cell-based, U-87MG ATCC.
Experiment [9] deals with HepG2. Nature of the experiment: Cytotoxicity in human HepG2 cells assessed as reduction in cell viability incubated for 48 hrs by MTT assay. Format: functional, cell-based. Particulars: HepG2, 48 h.
The subject of experiment [10] is HT-29. Briefly: Cytotoxicity in human HT-29 cells assessed as reduction in cell viability incubated for 48 hrs by MTT assay. In kind it is functional, cell-based. Particulars: HT-29, 48 h.
Experiment [11] has as its system SMMC-7721. Nature of the experiment: Cytotoxicity in human SMMC7721 cells assessed as reduction in cell viability incubated for 48 hrs by MTT assay. Particulars: SMMC-7721, 48 h. In kind it is functional, cell-based.
For experiment [12], the system named is A549. Nature of the experiment: Cytotoxicity in human A549 cells assessed as reduction in cell viability incubated for 48 hrs by MTT assay. In kind it is functional, cell-based. Particulars: A549, 48 h.
In experiment [13] the test system is A549. Nature of the experiment: Induction of apoptosis in human A549 cells assessed as early apoptotic cells level at 20 uM incubated for 24 hrs by Annexin V-FITC and propidium iodide staining based flow cytometry (reference value: 1.81%). In kind it is functional.
In experiment [14] the test system is A549. Nature of the experiment: Induction of apoptosis in human A549 cells assessed as necrotic cells level at 10 uM incubated for 24 hrs by Annexin V-FITC and propidium iodide staining based flow cytometry (reference value: 3.23%). In kind it is functional. A general note: Flow cytometry measures light scatter and fluorescence of single cells or particles in a stream.

For experiment [15], the system named is A549. Briefly: Induction of cell cycle arrest in human A549 cells assessed as accumulation at S phase at 15 uM incubated for 24 hrs by propidium iodide staining based flow cytometry (reference value: 19.47%). In kind it is functional.
Experiment [16] relates to A549. Briefly: Induction of cell cycle arrest in human A549 cells assessed as accumulation at G1 phase at 10 uM incubated for 24 hrs by propidium iodide staining based flow cytometry (reference value: 66.99%). Format: functional.
Experiment [17] concerns A549. Nature of the experiment: Induction of apoptosis in human A549 cells assessed as late apoptotic cells level at 15 uM incubated for 24 hrs by Annexin V-FITC and propidium iodide staining based flow cytometry (reference value: 4.14%). Format: functional.
Experiment [18] deals with A549. Nature of the experiment: Induction of apoptosis in human A549 cells assessed as late apoptotic cells level at 20 uM incubated for 24 hrs by Annexin V-FITC and propidium iodide staining based flow cytometry (reference value: 4.14%). Format: functional.
For experiment [19], the system named is A549. Nature of the experiment: Induction of apoptosis in human A549 cells assessed as necrotic cells level at 20 uM incubated for 24 hrs by Annexin V-FITC and propidium iodide staining based flow cytometry (reference value: 3.23%). Format: functional.
In experiment [20] the test system is A549. Briefly: Induction of cell cycle arrest in human A549 cells assessed as accumulation at G1 phase at 15 uM incubated for 24 hrs by propidium iodide staining based flow cytometry (reference value: 66.99%). In kind it is functional.
Experiment [21] relates to A549. Nature of the experiment: Cytotoxicity in human A549 cells assessed as reduction in cell viability incubated for 48 hrs in presence of pan-caspase inhibitor Z-VAD-fmk by MTT assay. In kind it is functional, cell-based.
Experiment [22] has as its system A549. Nature of the experiment: Induction of cell cycle arrest in human A549 cells assessed as accumulation at G2 phase at 15 uM incubated for 24 hrs by propidium iodide staining based flow cytometry (reference value: 13.54%). Format: functional.
For experiment [23], the system named is A549. Nature of the experiment: Induction of cell cycle arrest in human A549 cells assessed as accumulation at S phase at 20 uM incubated for 24 hrs by propidium iodide staining based flow cytometry (reference value: 19.47%). In kind it is functional.
Experiment [24] concerns A549. Nature of the experiment: Induction of cell cycle arrest in human A549 cells assessed as accumulation at G2 phase at 20 uM incubated for 24 hrs by propidium iodide staining based flow cytometry (reference value: 13.54%). Format: functional.
Experiment [25] has as its system A549. Nature of the experiment: Induction of DNA damage in human A549 cells assessed as increase in expression of gamma-H2AX protein expression by Western blot analysis. Format: functional, cell-based. For orientation: Immunoblotting shows a protein as a band on a membrane.
Experiment [26] deals with A549. Briefly: Induction of cell cycle arrest in human A549 cells assessed as accumulation at G1 phase incubated for 24 hrs by propidium iodide staining based flow cytometry. Format: functional.
Experiment [27] concerns A549. Nature of the experiment: Induction of apoptosis in human A549 cells assessed as early apoptotic cells level at 15 uM incubated for 24 hrs by Annexin V-FITC and propidium iodide staining based flow cytometry (reference value: 1.81%). In kind it is functional.
Experiment [28] has as its system A549. Nature of the experiment: Induction of apoptosis in human A549 cells assessed as early apoptotic cells level at 10 uM incubated for 24 hrs by Annexin V-FITC and propidium iodide staining based flow cytometry (reference value: 1.81%). In kind it is functional.
Experiment [29] has as its system A549. Briefly: Induction of cell cycle arrest in human A549 cells assessed as accumulation at G1 phase at 20 uM incubated for 24 hrs by propidium iodide staining based flow cytometry (reference value: 66.99%). Format: functional.
Experiment [30] has as its system A549. Briefly: Induction of cell cycle arrest in human A549 cells assessed as accumulation at S phase at 10 uM incubated for 24 hrs by propidium iodide staining based flow cytometry (reference value: 19.47%). In kind it is functional.
Experiment [31] concerns A549. Briefly: Induction of apoptosis in human A549 cells assessed as necrotic cells level at 15 uM incubated for 24 hrs by Annexin V-FITC and propidium iodide staining based flow cytometry (reference value: 3.23%). Format: functional.
Experiment [32] has as its system A549. Briefly: Induction of apoptosis in human A549 cells assessed as late apoptotic cells level at 10 uM incubated for 24 hrs by Annexin V-FITC and propidium iodide staining based flow cytometry (reference value: 4.14%). In kind it is functional.
The test system of experiment [33] is A549. Briefly: Induction of cell cycle arrest in human A549 cells assessed as accumulation at G2 phase at 10 uM incubated for 24 hrs by propidium iodide staining based flow cytometry (reference value: 13.54%). In kind it is functional.

Counter-ions that a name gives are not always drawn. Activity calls are given as the source filed them. The calls are words filed in the database; no cut-off is given here. A value given as a limit tells only on which side of the number the result lay.

In the case of `CC(C)[C@@H]1CC[C@]2(C)C1=CC[C@]1(C)[C@H]3CC[C@]4(C)O[C@@H]4C(=O)[C@]3(C)[C@@H](O)C[C@H]12`, the result in the experiment with SMMC-7721 [1], in the experiment on U-87 MG [2], in the experiment on HepG2 [3], in the experiment with U-251 [4], in the experiment on A549 [5] and in the experiment with HT-29 [6] was inactive.

Broadly, the IC50 is the point on the concentration scale where inhibition reaches its midpoint. With `COc1cccc2c1C(=O)c1c(O)c3c(c(O)c1C2=O)C[C@@](O)(C(=O)CO)C[C@@H]3O[C@H]1C[C@H](N)[C@H](O)[C@H](C)O1` [DOXORUBICIN HYDROCHLORIDE], the IC50 in the experiment with U-251 [7] was 2.9 µM; in the experiment with U-87 MG [8] it was 1.1 µM.

On to `CC(C)[C@@H]1CC[C@]2(C)C1=CC[C@]1(C)[C@H]3CC[C@]4(C)O[C@@H]4[C@@H](O)[C@]3(C)[C@@H](O)C[C@H]12`, for which the result in the experiment with SMMC-7721 [1], with U-87 MG [2], in the experiment on HepG2 [3], with U-251 [4], in the experiment on A549 [5] and in the experiment with HT-29 [6] was inactive.

Consider `CC1=C[C@@H](O)[C@@]2(C)[C@H](CC1)[C@@]1(C)CC=C3[C@H](C(C)C)CC[C@@]3(C)[C@@H]1C[C@@H]2O`, for which the IC50 was above 40 µM in the experiment with HepG2 [9]; above 40 µM with U-251 [7]; above 40 µM in the experiment with U-87 MG [8]; 24.2 µM with HT-29 [10]; above 40 µM in the experiment with SMMC-7721 [11]; above 40 µM in the experiment with A549 [12].

For the molecule `C=C1CC[C@@H]2[C@@]3(C)CC=C4[C@H](C(C)C)CC[C@@]4(C)[C@@H]3C[C@H](O)[C@@]2(C)[C@@H]2O[C@@H](c3ccc(O)cc3)O[C@@H]12`, the IC50 was above 40 µM in the experiment with HepG2 [9]; above 40 µM with U-251 [7]; above 40 µM in the experiment with U-87 MG [8]; above 40 µM with HT-29 [10]; 25.4 µM in the experiment on SMMC-7721 [11]; above 40 µM in the experiment with A549 [12].

For `CC(C)[C@@H]1CC[C@]2(C)C1=CC[C@]1(C)[C@H]3CC[C@@]4(C)O[C@H]([C@H]4O)[C@]3(C)[C@@H](O)C[C@H]12`, the IC50 is 20.1 µM with HepG2 [9]; 12.6 µM in the experiment with U-251 [7]; 16.4 µM with U-87 MG [8]; 14.6 µM with HT-29 [10]; 15.2 µM in the experiment with SMMC-7721 [11]; 6.2 µM in the experiment on A549 [12]. Moreover, the Activity in the experiment on A549 [13] was 16.83%; in the experiment with A549 [14] it was 3.23%; in the experiment on A549 [15] it was 11.62%; in the experiment with A549 [16], 76.4%; with A549 [17] it was 6.05%; in the experiment with A549 [18], 20.57%. Further, the Activity in the experiment with A549 [19] is 3.3%; with A549 [20], 83.33%; with A549 [22] it was 5.06%; in the experiment on A549 [23], 10.38%; in the experiment with A549 [24], 3.76%; in the experiment with A549 [25], “Dose-dependent effect”. The Activity entry in the experiment with A549 [26] was “Dose-dependent effect”; in the experiment on A549 [27], 2.43%; in the experiment on A549 [28], 2.17%; in the experiment with A549 [29], 85.86%; in the experiment with A549 [30], 16.1%; with A549 [31], 3.79%. Also, the Activity in the experiment on A549 [32] came to 3.93%; in the experiment with A549 [33], 7.51%. For the same molecule, the result with A549 [21] was inactive.

For the molecule `C=C1CC[C@@H]2[C@@]3(C)CC=C4[C@H](C(C)C)CC[C@@]4(C)[C@@H]3C[C@H](O)[C@@]2(C)[C@H](O)[C@H]1O`, the IC50 in the experiment on HepG2 [9] was 8.2 µM; with U-251 [7] it was above 40 µM; in the experiment on U-87 MG [8] it was above 40 µM; in the experiment with HT-29 [10] it was above 40 µM; in the experiment with SMMC-7721 [11], above 40 µM; in the experiment with A549 [12], 16.3 µM.

On to `CC(C)[C@@H]1CC[C@]2(C)C1=CC[C@]1(C)[C@H]3CC[C@](C)(O)[C@H](O)[C@@H](O)[C@]3(C)[C@@H](O)C[C@H]12`, for which the outcome with SMMC-7721 [1], in the experiment on U-87 MG [2], in the experiment on HepG2 [3], with U-251 [4], in the experiment on A549 [5] and in the experiment with HT-29 [6] was inactive.

Values taken from ChEMBL document CHEMBL4392867, “Asperunguisins A-F, Cytotoxic Asperane Sesterterpenoids from the Endolichenic Fungus Aspergillus unguis” (J Nat Prod, 2019).
